Results: patent publication US20110244503A1, “System and Method for Anti-Cancer Drug Candidate Evaluation” (priority 2010, published 2011)

Assays:
[1] = tested on: ovarian cancer cell line, CAOV-3; assay: MiCK-type spectrophotometric apoptosis assay, CAOV-3 cells; type: cell-based; details: as Example 1 but with higher drug concentrations, above 3 kinetic units = positive response
Protocol: Cancer cells were obtained from exponentially growing cultures in RPMI 1640 medium without phenol red supplemented with 10% heat-inactivated fetal bovine serum, 100 U/ml penicillin and 100 μg/mL streptomycin (complete medium) in humidified air with 5% CO2 at 37° C. Cells were harvested, washed with pre-warmed medium and resuspended in complete medium. Appropriate cell counts and viability were tested.
Cells from each cell line in complete medium were placed in wells of a 96-well plate at a concentration of 2 to 5×10^5 cells/ml. Various dilutions of the drug candidate, Idarubicin, were added to the wells in 5 μL aliquots. Final concentrations for the drug candidate were 0.01, 0.1, 0.5, 1, 5, 10 and 20 μM. The plates were incubated at 37° C. for 30 minutes in a humidified 5% CO2 atmosphere. After this adjustment period, 30 μl of sterile mineral oil was layered on top of each well. The microtiter plate was placed in an incubated spectrophotometer chamber (37° C.) and OD at 600 nm was measured every 5 minutes for a period of 48 hours. The reader was calibrated to zero absorbance using well containing only complete medium and no cells. All tests were performed in triplicate.
Data acquisition and computation was performed using appropriate software. OD readings were plotted against time to provide a kinetic representation of cell responses to the drugs and drug candidate. Kinetic units were calculated for each test well. A kinetic unit below […] was considered a negative response and above 3 was considered a positive response. A kinetic unit between 1.5 and 3 was considered a marginal response.
A variety of anti-cancer drugs were tested against a single ovarian cancer cell line, CAOV-3, to determine their suitability for use against ovarian cancer. Tests were performed in a manner similar to those in Example 1, but with higher drug concentrations.

[2] = tested on: MOLT-3, an acute T-cell lymphoblastic leukemia; assay: MiCK-type spectrophotometric apoptosis assay, MOLT-3 cells; type: cell-based, human; details: 0.01-20 μM
Protocol: (§1) Spectrophotometric data may be converted to kinetic units. Kinetic units are determined by the slope of the curve created when the change in the OD at 600 nm caused by cell blebbing is plotted as a function of time. Specific information regarding the calculation of kinetic units is provided in Kravtsov, Vladimir D. et al., Use of the Microculture Kinetic Assay of Apoptosis to Determine Chemosensitivities of Leukemias, Blood 92:968-980 (1998), incorporated by reference herein. Optical density for a given drug candidate at a given concentration may be plotted against time. This plot gives a distinctive increasing curve if the cells are undergoing apoptosis. […] (FIG. 3.) Cell death due to reasons other than apoptosis can also be determined by the current assay and is useful in eliminating false positives from drug candidate screening. […]
(§2) Vmax is the maximum kinetic rate, which is the slope of the steep increase in the OD v. time plot when cells are undergoing apoptosis. […] ODcell is the initial OD of the control containing cells and ODblank is the initial OD of a blank well containing only medium or medium and drug (the drug may be omitted for some drugs, but for colored drugs in particular it may be included in the blank). y is a coefficient dependent on the cell type being assayed and may be determined experimentally through observation of the cell lines. […]

[3] = tested on: JURL-MK2, a chronic myeloid leukemia in blast crisis; assay: MiCK-type spectrophotometric apoptosis assay, JURL-MK2 cells; type: cell-based, human; details: 0.01-20 μM, OD at 600 nm every 5 minutes for 48 hours, above 3 = positive response
Protocol: as §1, §2

[4] = tested on: RAMOS, a B cell line derived from Burkitt's lymphoma; assay: MiCK-type spectrophotometric apoptosis assay, RAMOS cells; type: cell-based, human; details: 0.01-20 μM
Protocol: as §1, §2

[5] = tested on: HL60, an acute promyelocytic leukemia cell line; assay: MiCK-type spectrophotometric apoptosis assay, HL60 cells; type: cell-based, human; details: HL-60 cells
Protocol: as §1, §2

Structure (SMILES) | response / suitability (in words) [1] | other results
CCC1=C[C@@H]2CN(C1)Cc1c([nH]c3ccccc13)[C@@](C(=O)OC)(c1cc3c(cc1OC)N(C)[C@H]1[C@@](O)(C(=O)OC)[C@H](OC(C)=O)[C@]4(CC)C=CCN5CC[C@]31[C@@H]54)C2 [Vinorelbine] | not suitable drugs for treating ovarian cancer | –
O=C1[O][Pt]2([NH][C@@H]3CCCC[C@H]3[NH]2)[O]C1=O [Oxaliplatin] | not suitable drugs for treating ovarian cancer | –
O=C1c2c(O)ccc(O)c2C(=O)c2c(NCCNCCO)ccc(NCCNCCO)c21 [Mitoxantrone] | positive response at reasonable concentrations | –
CO[C@@]12[C@H](COC(N)=O)C3=C(C(=O)C(C)=C(N)C3=O)N1C[C@@H]1N[C@@H]12 [Mitomycin] | positive response at reasonable concentrations | –
COc1cccc2c1C(=O)c1c(O)c3c(c(O)c1C2=O)C[C@@](O)(C(C)=O)C[C@@H]3O[C@H]1C[C@H](N)[C@H](O)[C@H](C)O1 [Daunorubicin] | positive response at reasonable concentrations | –
CC(=O)[C@]1(O)Cc2c(O)c3c(c(O)c2[C@@H](O[C@H]2C[C@H](N)[C@H](O)[C@H](C)O2)C1)C(=O)c1ccccc1C3=O [Idarubicin, 4-demethoxydaunorubicin] | positive response at reasonable concentrations | concentration dependence of kinetic unit readings (in words) [2]: higher kinetic unit readings at lower concentrations; apoptotic response ([2]; OD at 600 nm every 5 minutes for 48 hours, above 3 = positive response): exceeding 3 kinetic units; apoptotic response [3]: exceeding 3 kinetic units; apoptotic response ([4]; RAMOS cells, OD at 600 nm every 5 minutes for 48 hours, above 3 = positive response): exceeding 3 kinetic units; concentration dependence of response (in words) ([4]; Ramos cells): positive response was seen in the Ramos cell line only at high concentrations; maximal response ([5]; 0.01-20 μM, 48 hours, between 1.5 and 3 = marginal response): 2.3 kinetic units; drug sensitivity (in words) ([5]; threshold 3 kinetic units): only marginal sensitivity
CCc1c2c(nc3ccc(OC(=O)N4CCC(N5CCCCC5)CC4)cc13)-c1cc3c(c(=O)n1C2)COC(=O)[C@]3(O)CC [Irinotecan] | need to use high concentrations of the drug to achieve a positive response | –
